In the supplement of paper PMC10949913:

What was measured:
Test in all cases: area under concentration-response curve (viability) (AUC (a.u.)); higher = less active
Conditions in all cases: 48 h
[1] = system: CU-ACC1
Procedure, shortened: (§1)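 AC50 and area under the curve values derive from fitted concentration-response curves, restricted to inhibitory or non-responding curve classes. The curves came from three adrenocortical carcinoma cell lines in 1,536-well plates, each receiving 23 nL of every library compound at 11 concentrations. Viability was read by CellTiter-Glo luminescence after 48 h, normalised per plate to vehicle and empty-well controls.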

[2] = system: CU-ACC2
Procedure, shortened: as §1

[3] = system: NCI-H295R
Procedure, shortened: as §1

Row | Compound | area under concentration-response curve [1] | area under concentration-response curve [2] | area under concentration-response curve [3]
1 | CC(C)OC(=O)/C1=C/N(CC(C)(C)C2=C1[NH]C3=CC=CC=C23)C(=O)C4=CC=C(F)C(=C4)F | 454 | 555 | 529
2 | C[C@@H]1CC[C@@]2(OC1)OC1CC3C4CC=C5CC(O)CCC5(C)C4CCC3(C)C1[C@@H]2C (stereo partly specified) | 470 | 527 | 465
3 | CCC1(c2ccc(N)cc2)CCC(=O)NC1=O (stereo unspecified) | 591 | 631 | 568
4 | CN(C(=O)CNC(=O)/C=C/c1cccc(Cl)c1)C1CC[S+](=O)([O-])CC1 (stereo unspecified) | 479 | 540 | 465
5 | CC(C)C(=O)Nc1ccc([N+](=O)[O-])c(C(F)(F)F)c1 | 551 | 627 | 570
6 | COC(=O)/C=C/C(=O)N(O)CCCCNCc1ccc(COC(=O)Nc2cccc3ccccc23)cc1 | 208 | 245 | 225
7 | CN[C@@H](C)C(=O)N[C@H](C(=O)N1CCC[C@H]1C(=O)Nc1sc(-c2ncco2)nc1-c1ccccc1)C1CCCCC1 | 457 | 530 | 461
8 | C[C@H]1COC2=C3N1\C=C(C(O)=O)/C(=O)C3=CC(=C2N4CCN(C)CC4)F | 522 | 650 | 595
9 | NC(=O)C1CCCc2c1[nH]c1ccc(Cl)cc21 (stereo unspecified) | 496 | 597 | 545
10 | CCC(C)CCCCC(=O)N[C@@H](CCN)C(=O)NC(C(=O)N[C@H](CCN)C(=O)N[C@@H]1CCNC(=O)C([C@@H](C)O)NC(=O)[C@@H](CCN)NC(=O)[C@@H](CCN)NC(=O)[C@@H](CC(C)C)NC(=O)[C@H](Cc2ccccc2)NC(=O)[C@H](CCN)NC1=O)[C@@H](C)O (stereo partly specified) | 505 | 631 | 553
11 | C#CCN[C@@H]1CCc2ccccc21 | 565 | 642 | 590
12 | Nc1ncnc2ccccc12 | 534 | 633 | 566
13 | O=C(NCc1cccc(O)c1)Nc1nc(-c2ccncc2)cs1 | 546 | 582 | 559
14 | N#C[C@@H]1C[C@@H]2C[C@@H]2N1C(=O)[C@@H](N)C12CC3CC(CC(O)(C3)C1)C2 | 500 | 598 | 517
15 | CC[C@H](NC(C)C)[C@H](O)C1=CC=C(O)C2=C1\C=C/C(=O)N2 | 566 | 650 | 564
16 | CCNC(=O)CCC/C=C\C[C@@H]1[C@@H](/C=C/C(O)CCc2ccccc2)[C@@H](O)C[C@@H]1O (stereo partly specified) | 508 | 646 | 571
17 | O=C(Nc1c(Cl)cncc1Cl)c1ccc(OC(F)F)c(OCC2CC2)c1 | 464 | 556 | 523
18 | Nc1ncnc2nc(-c3ccc(N4CCOCC4)nc3)cc(-c3cccc(Br)c3)c12 | 492 | 525 | 459
19 | Cc1ccc([S+](=O)([O-])Nc2nc3ccccc3nc2Nc2ccc3nsnc3c2)cc1 | 558 | 640 | 535
20 | N=C(N)c1ccc2[nH]c(-c3cc(CC(=O)N[C@@H](CC(=O)O)C(=O)O)cc(-c4cc([S+](N)(=O)[O-])ccc4O)c3O)nc2c1 | 595 | 620 | 562
21 | S=P(N1CC1)(N1CC1)N1CC1 | 496 | 590 | 562
22 | COCC(=O)NC/C=C/c1ccc2ncnc(Nc3ccc(Oc4ccc(C)nc4)c(C)c3)c2c1 | 522 | 613 | 552
23 | COC(=O)[C@@H](N)CCCNC(=N)N[N+](=O)[O-] | 520 | 610 | 557
24 | Cc1ccc(/C=N/NC(=O)c2ccccc2Oc2ccccc2)o1 | 440 | 491 | 421

Row | Compound | area under concentration-response curve [1] | area under concentration-response curve [2] | area under concentration-response curve [3]
25 | CC[C@]12CC[C@H]3[C@@H](CCC/4=C/C(=O)CC[C@H]34)[C@@H]1CC[C@@]2(O)C#C | 519 | 614 | 575
26 | CC1=C(/C=C/C(C)=C/C=C/C(C)=C/C(=O)O)C(C)(C)CCC1 | 503 | 592 | 476
27 | O=C(NCC(=O)N1CC[C@H](NC2CCC(O)(c3ccc(-c4ncccn4)cn3)CC2)C1)c1cccc(C(F)(F)F)c1 (stereo partly specified) | 554 | 606 | 560
28 | CCOC(=O)[C@H](CCc1ccccc1)N[C@H]1CCc2ccccc2N(CC(=O)O)C1=O | 492 | 592 | 520
29 | OC(c1ccc(-c2ccc(CN3CCN(Cc4ccncc4)CC3)cc2)c(F)c1)(C(F)(F)F)C(F)(F)F | 584 | 638 | 581
30 | O=C(O)c1cccc(-c2noc(-c3ccccc3F)n2)c1 | 477 | 559 | 451
31 | CC1(C)NC(=O)N(c2ccc([N+](=O)[O-])c(C(F)(F)F)c2)C1=O | 511 | 634 | 543
32 | CN(Cc1ccccc1)C(=O)c1ccc([S+](=O)([O-])Nc2ccccc2)cc1 | 491 | 550 | 519
33 | C[C@@H]1C\C2=C(CCC(=O)C2)/[C@H]3CC[C@@]4(C)[C@@H](CC[C@@]4(O)C#C)[C@H]13 | 560 | 592 | 547
34 | C[C@H]1O[C@H]([C@H](O)[C@@H]1O)N2\C=C(F)/C(=O)NC2=O | 559 | 621 | 550
35 | CC(C)(C)C(=O)CN1C(=O)[C@H](NC(=O)Nc2cccc(C(=O)O)c2)CN(C2CCCCC2)c2ccccc21 | 518 | 612 | 559
36 | COc1ccc(Nc2nccc(NCCO)n2)cc1 | 496 | 578 | 517
37 | N[S+](=O)([O-])NCCNc1nonc1/C(=N/O)Nc1ccc(F)c(Br)c1 | 524 | 595 | 468
38 | O=c1cc(O)c(Cl)c[nH]1 | 558 | 641 | 586
39 | NC/1=N/C(=O)N(/C=N1)[C@@H]2O[C@H](CO)[C@@H](O)[C@H]2O | 469 | 522 | 504
40 | Cc1c(F)cc(C(=O)NC2CC2)cc1-c1c(F)cn2c(C(C)(C)C)nnc2c1F | 482 | 507 | 469
41 | CCCCCN(CCC12CC3CC(CC(C3)C1)C2)C(=O)NCCCc1ccncc1 | 472 | 519 | 453
42 | CCc1cccc2c3c([nH]c12)[C@@](CC)(CC(=O)O)OCC3 | 518 | 605 | 525
43 | CO[C@H]1/C=C/O[C@@]2(C)Oc3c(C)c(O)c4c(O)c(c5c(nc6cc(C)ccn65)c4c3C2=O)NC(=O)/C(C)=C\C=C\[C@H](C)[C@H](O)[C@@H](C)[C@@H](O)[C@@H](C)[C@H](OC(C)=O)[C@@H]1C | 475 | 557 | 529
44 | COc1cc2ncn(-c3cc(OCc4ccccc4C(F)(F)F)c(C(N)=O)s3)c2cc1OC | 515 | 606 | 506
45 | CC(C)N1C(=O)NC(=C/C1=O)\N[C@@H](C)C2=CC=CC=C2 | 471 | 552 | 497
46 | CC1(C)CCC(C)(C)c2cc(NC(=O)c3ccc(C(=O)O)cc3)ccc21 | 468 | 495 | 443
47 | CN[C@@H](C)C(=O)N[C@H](C(=O)N1CCC[C@H]1c1nc(C(=O)c2ccc(F)cc2)cs1)C1CCCCC1 | 525 | 571 | 546
